Test results published in ChEMBL document CHEMBL1132968, “Substituent effects on the antibacterial activity of nitrogen-carbon-linked (azolylphenyl)oxazolidinones with expanded activity against the fastidious gram-negative organisms Haemophilus influenzae and Moraxella catarrhalis” (2000).
In brackets after ≈: the same amount, converted by molar mass.

Columns and labels:
Type in all cases: functional
[1] = tested on: Moraxella catarrhalis; assay: Inhibitory activity against Moraxella catarrhalis UC30610
[2] = tested on: Staphylococcus aureus; assay: Inhibitory activity against Methicillin-resistant Staphylococcus aureus UC6685
[3] = tested on: Streptococcus pneumoniae; assay: Inhibitory activity against Streptococcus pneumoniae UC9912
[4] = tested on: Mus musculus; assay: Dose required to cure 50% of Staphylococcus aureus infected mice in the presence of eperezolid when administered orally; value ranges from 2.9-7.1); settings: po
[5] = tested on: Staphylococcus aureus; assay: Inhibitory activity against Methicillin-susceptible Staphylococcus aureus UC9213
[6] = tested on: Staphylococcus epidermidis; assay: Inhibitory activity against Methicillin-resistant Staphylococcus epidermidis UC12084
[7] = tested on: Enterococcus faecalis; assay: Inhibitory activity against Enterococcus faecalis UC9217
[8] = tested on: Mus musculus; assay: Dose required to cure 50% of Staphylococcus aureus infected mice when administered orally; value ranges from 5.7-14.5; settings: po
[9] = tested on: Haemophilus influenzae; assay: Inhibitory activity against Haemophilus influenzae UC30063
[10] = tested on: Mus musculus; assay: Dose required to cure 50% of Staphylococcus aureus infected mice when administered orally; value ranges from 1.4-3.8; settings: po
[11] = tested on: Mus musculus; assay: Dose required to cure 50% of Staphylococcus aureus infected mice in the presence of vancomycin when administered orally; value ranges from 2.5-6.4; settings: po
[12] = tested on: Mus musculus; assay: Dose(orally administered) required to cure 50% of Staphylococcus aureus infected mice; settings: po
[13] = tested on: Mus musculus; assay: Dose(orally administered) required to cure 50% of Staphylococcus aureus infected mice in the presence of eperezolid (95% confidence limits); settings: po
[14] = tested on: Mus musculus; assay: Dose(orally administered) required to cure 50% of Staphylococcus aureus infected mice in the presence of eperezolid; settings: po
[15] = tested on: Mus musculus; assay: Dose required to cure 50% of Staphylococcus aureus infected mice in the presence of eperezolid when administered orally; value ranges from 1.8-7.0; settings: po
[16] = tested on: Mus musculus; assay: Dose required to cure 50% of Staphylococcus aureus infected mice when aministered orally; value ranges from 0.8-2.0; settings: po
[17] = tested on: Mus musculus; assay: Dose required to cure 50% of Staphylococcus aureus infected mice in the presence of eperezolid when administered orally; value ranges from 1.8-4.4; settings: po
[18] = tested on: Mus musculus; assay: Dose required to cure 50% of Staphylococcus aureus infected mice when administered orally; settings: po
[19] = tested on: Mus musculus; assay: Dose required to cure 50% of Staphylococcus aureus infected mice in the presence of eperezolid when administered orally; settings: po
[20] = tested on: Mus musculus; assay: Dose required to cure 50% of Staphylococcus aureus infected mice when administered orally; the value ranges from 1.1-3.3; settings: po
[21] = tested on: Mus musculus; assay: Dose required to cure 50% of Staphylococcus aureus infected mice in the presence of eperezolid when orally administered; the value ranges from 1.7-4.5; settings: po
[22] = tested on: Mus musculus; assay: Dose required to cure 50% of Staphylococcus aureus infected mice in the presence of vancomycin when orally administered; settings: po
[23] = tested on: Mus musculus; assay: Dose required to cure 50% of Staphylococcus aureus infected mice when orally administered; value ranges from 7.9-32.5; settings: po
[24] = tested on: Mus musculus; assay: Dose required to cure 50% of Staphylococcus aureus infected mice when orally administered; settings: po
[25] = tested on: Mus musculus; assay: Dose required to cure 50% of Staphylococcus aureus infected mice in the presence of eperezolid when orally administered; value ranges from 1.1-2.8; settings: po
[26] = tested on: Mus musculus; assay: Dose required to cure 50% of Staphylococcus aureus infected mice in the presence of eperezolid when orally administered.; settings: po
[27] = tested on: Mus musculus; assay: Dose required to cure 50% of Staphylococcus aureus infected mice when orally administered; value ranges 1.1-2.7; settings: po
[28] = tested on: Mus musculus; assay: Dose required to cure 50% of Staphylococcus aureus infected mice in the presence of eperezolid when orally administered; value ranges from 0.1-6.6; settings: po
[29] = tested on: Mus musculus; assay: Dose required to cure 50% of Staphylococcus aureus infected mice in the presence of eperezolid when administered orally.; settings: po
[30] = tested on: Mus musculus; assay: Dose required to cure 50% of Staphylococcus aureus infected mice when administered orally; value ranges from 5.5-22.1; settings: po
[31] = tested on: Mus musculus; assay: Dose required to cure 50% of Staphylococcus aureus infected mice in the presence of vancomycin when administered orally; value ranges from 1.43-3.5; settings: po
[32] = tested on: Mus musculus; assay: Dose required to cure 50% of Staphylococcus aureus infected mice when orally administered;value ranges from 3.1-7.8; settings: po
[33] = tested on: Mus musculus; assay: Dose required to cure 50% of Staphylococcus aureus infected mice in the presence of vancomycin when administered orally.; settings: po
[34] = tested on: Mus musculus; assay: Dose required to cure 50% of Staphylococcus aureus infected mice in the presence of eperezolid when administered orally; vlue ranges from 1.1-2.8; settings: po
[35] = tested on: Mus musculus; assay: Dose required to cure 50% of Staphylococcus aureus infected mice when administered orally;; settings: po

Row | Compound | MIC [1] | MIC [2] | MIC [3] | MIC [5] | MIC [6] | MIC [7] | MIC [9] | other results
1 | CC(=O)NC[C@H]1CN(c2ccc(-n3cc(C(C)=O)nn3)c(F)c2)C(=O)O1 | 8 µg/mL (≈ 22.1 µM) | 1 µg/mL (≈ 2.77 µM) | 0.5 µg/mL (≈ 1.38 µM) | 1 µg/mL (≈ 2.77 µM) | 1 µg/mL (≈ 2.77 µM) | 2 µg/mL (≈ 5.54 µM) | 8 µg/mL (≈ 22.1 µM) | ED50 [4]: 4.4 mg/kg/day; ED50 [8]: 8.8 mg/kg/day
2 | CC(=O)NC[C@H]1CN(c2ccc(N3CCN(C(=O)CO)CC3)c(F)c2)C(=O)O1 [EPEREZOLID] |  |  |  |  |  |  |  | ED50 [10]: 1.9 mg/kg/day; ED50 [11]: 3.9 mg/kg/day
3 | CCOC(=O)/C=C/c1ccn(-c2ccc(N3C[C@H](CNC(C)=O)OC3=O)cc2F)c1 | 4 µg/mL (≈ 9.63 µM) | 4 µg/mL (≈ 9.63 µM) | 0.5 µg/mL (≈ 1.2 µM) | 4 µg/mL (≈ 9.63 µM) | 2 µg/mL (≈ 4.81 µM) | 2 µg/mL (≈ 4.81 µM) | 32 µg/mL (≈ 77 µM) | ED50 [12]: > 20 mg/kg/day; ED50 [13]: 2.1 mg/kg/day
4 | CC(=O)NC[C@H]1CN(c2ccc(-n3cc(C=O)nn3)c(F)c2)C(=O)O1 | 2 µg/mL (≈ 5.76 µM) | 0.25 µg/mL (≈ 0.72 µM) | 0.25 µg/mL (≈ 0.72 µM) | 0.5 µg/mL (≈ 1.44 µM) | < 0.125 µg/mL | 0.5 µg/mL (≈ 1.44 µM) | 4 µg/mL (≈ 11.5 µM) | ED50 [12]: > 20 mg/kg/day; ED50 [14]: 1.1 mg/kg/day
5 | CC(=O)NC[C@H]1CN(c2ccc(-n3cc(C#N)cn3)c(F)c2)C(=O)O1 |  |  | ≤ 0.125 µg/mL |  | 0.25 µg/mL (≈ 0.728 µM) |  |  | ED50 [15]: 3.3 mg/kg/day; ED50 [16]: 1.2 mg/kg/day
6 | COC(=O)c1ccn(-c2ccc(N3C[C@H](CNC(C)=O)OC3=O)cc2F)c1 | 16 µg/mL (≈ 42.6 µM) | 2 µg/mL (≈ 5.33 µM) | 0.25 µg/mL (≈ 0.666 µM) | 2 µg/mL (≈ 5.33 µM) | 0.5 µg/mL (≈ 1.33 µM) | 1 µg/mL (≈ 2.66 µM) | > 16 µg/mL | ED50 [17]: 2.9 mg/kg/day; ED50 [18]: > 20 mg/kg/day
7 | COC(=O)c1cn(-c2ccc(N3C[C@H](CNC(C)=O)OC3=O)cc2F)nn1 | 16 µg/mL (≈ 42.4 µM) | 4 µg/mL (≈ 10.6 µM) | 1 µg/mL (≈ 2.65 µM) | 4 µg/mL (≈ 10.6 µM) | 2 µg/mL (≈ 5.3 µM) | 4 µg/mL (≈ 10.6 µM) | > 16 µg/mL | ED50 [18]: > 20 mg/kg/day; ED50 [19]: 15.3 mg/kg/day
8 | CC(=O)NC[C@H]1CN(c2ccc(-n3cc(C#N)nn3)c(F)c2)C(=O)O1 | 2 µg/mL (≈ 5.81 µM) | 0.5 µg/mL (≈ 1.45 µM) | ≤ 0.125 µg/mL | 1 µg/mL (≈ 2.9 µM) | 0.25 µg/mL (≈ 0.726 µM) | 1 µg/mL (≈ 2.9 µM) | 2 µg/mL (≈ 5.81 µM) | ED50 [20]: 1.9 mg/kg/day; ED50 [21]: 2.8 mg/kg/day
9 | CC(=O)NC[C@H]1CN(c2ccc(-n3cccc3)c(F)c2)C(=O)O1 | 2 µg/mL (≈ 6.3 µM) | 1 µg/mL (≈ 3.15 µM) | ≤ 0.5 µg/mL | 1 µg/mL (≈ 3.15 µM) | ≤ 0.5 µg/mL | 1 µg/mL (≈ 3.15 µM) | 4 µg/mL (≈ 12.6 µM) | ED50 [22]: 2.7 mg/kg/day; ED50 [23]: 13.2 mg/kg/day
10 | CC(=O)NC[C@H]1CN(c2ccc(-n3cccn3)c(F)c2)C(=O)O1 | 16 µg/mL (≈ 50.3 µM) | 2 µg/mL (≈ 6.28 µM) | 1 µg/mL (≈ 3.14 µM) | 2 µg/mL (≈ 6.28 µM) | 1 µg/mL (≈ 3.14 µM) | 2 µg/mL (≈ 6.28 µM) | 32 µg/mL (≈ 101 µM) | ED50 [24]: > 20 mg/kg/day; ED50 [25]: 1.8 mg/kg/day
11 | CC(=O)NC[C@H]1CN(c2ccc(-n3ccc(/C(C)=N\O)c3)c(F)c2)C(=O)O1 | 2 µg/mL (≈ 5.34 µM) | 1 µg/mL (≈ 2.67 µM) | 0.25 µg/mL (≈ 0.668 µM) | 2 µg/mL (≈ 5.34 µM) | 0.5 µg/mL (≈ 1.34 µM) | 1 µg/mL (≈ 2.67 µM) | 8 µg/mL (≈ 21.4 µM) | ED50 [26]: 10 mg/kg/day; ED50 [18]: 15 mg/kg/day
12 | CC(=O)NC[C@H]1CN(c2ccc(-n3ccc(C#N)c3)c(F)c2)C(=O)O1 |  |  | ≤ 0.125 µg/mL |  | ≤ 0.125 µg/mL |  |  | ED50 [27]: 1.9 mg/kg/day; ED50 [28]: 4 mg/kg/day
13 | CC(=O)NC[C@H]1CN(c2ccc(-n3ccc(C(C)=O)c3)c(F)c2)C(=O)O1 | 4 µg/mL (≈ 11.1 µM) | 1 µg/mL (≈ 2.78 µM) | 0.25 µg/mL (≈ 0.696 µM) | 2 µg/mL (≈ 5.57 µM) | 0.5 µg/mL (≈ 1.39 µM) | 1 µg/mL (≈ 2.78 µM) | 16 µg/mL (≈ 44.5 µM) | ED50 [18]: 6.5 mg/kg/day; ED50 [29]: 10 mg/kg/day
14 | CC(=O)NC[C@H]1CN(c2ccc(-n3ccnc3)c(F)c2)C(=O)O1 | 4 µg/mL (≈ 12.6 µM) | 1 µg/mL (≈ 3.14 µM) | ≤ 0.5 µg/mL | 2 µg/mL (≈ 6.28 µM) | ≤ 0.5 µg/mL | 2 µg/mL (≈ 6.28 µM) | 8 µg/mL (≈ 25.1 µM) | ED50 [30]: 9.5 mg/kg/day; ED50 [31]: 2.2 mg/kg/day
15 | CC(=O)NC[C@H]1CN(c2ccc(-n3ccnn3)c(F)c2)C(=O)O1 | 2 µg/mL (≈ 6.26 µM) | 1 µg/mL (≈ 3.13 µM) | ≤ 0.5 µg/mL | 1 µg/mL (≈ 3.13 µM) | ≤ 0.5 µg/mL | 1 µg/mL (≈ 3.13 µM) | 4 µg/mL (≈ 12.5 µM) | ED50 [32]: 4.7 mg/kg/day; ED50 [33]: 2 mg/kg/day
16 | CC(=O)NC[C@H]1CN(c2ccc(-n3cnnc3)c(F)c2)C(=O)O1 | 8 µg/mL (≈ 25.1 µM) | 8 µg/mL (≈ 25.1 µM) | 1 µg/mL (≈ 3.13 µM) | 16 µg/mL (≈ 50.1 µM) | 4 µg/mL (≈ 12.5 µM) | 8 µg/mL (≈ 25.1 µM) | > 16 µg/mL | ED50 [34]: 2 mg/kg/day; ED50 [35]: > 20 mg/kg/day
